# From ChEMBL document CHEMBL5131443, “Discovery of a benzimidazole-based dual FLT3/TrKA inhibitor targeting acute myeloid leukemia” (Bioorg Med Chem, 2022)
# Calls of active or inactive are those of the source. The rule behind the calls is not given here.
# Columns and labels:
# [1] = biological target: T1, Receptor-type tyrosine-protein kinase FLT3 (Homo sapiens, UniProt P36888); assay type: cell-based, RS4-11
# [2] = biological target: T2, Receptor-type tyrosine-protein kinase FLT3 (Homo sapiens, UniProt P36888, ITD); assay type: cell-based, MV4-11
# [3] = biological target: T3, Receptor-type tyrosine-protein kinase FLT3 (Homo sapiens, UniProt P36888, D835Y)
# [4] = biological target: Tyrosine-protein kinase ABL1 (Homo sapiens) (UniProt P00519); assay: Inhibition of His-tagged recombinant human ABL1 at 1 uM
# MOLM-13 [5] = assay: Induction of apoptosis in human MOLM-13 cells assessed as increase number of apoptotic cells at 10 to 50 nM measured after 72 hrs by propidium iodide staining based flow cytometry; assay type: functional, cell-based; conditions: dose 10-50 nM
# MV4-11 [6] = assay: Inhibition of colony formation in human MV4-11 cells at 500 nM measured after 14 days; assay type: functional, cell-based; conditions: time 14.0 day
# MOLM-13 [7] = assay: Inhibition of colony formation in human MOLM-13 cells at 500 nM measured after 7 days; assay type: functional, cell-based; conditions: time 7.0 day
# KM12 = assay: Anticancer activity against human KM12 cells assessed as cell viability after 72 hrs by ATP Cell Titer G1oTM assay; assay type: functional, cell-based; conditions: KM12, 72 h
# [8] = system: Receptor-type tyrosine-protein kinase FLT3 (Homo sapiens), P36888 [UNDEFINED MUTATION]; assay: Inhibition of FLT3-ITD mutant in human MOLM-13 cells assessed as decrease in Erk1/2 phosphorylation measured after 24 to 48 hrs by Western blot analysis; assay type: cell-based; conditions: dose 10-100 nM, time 24-48 hrs, DDE = dose-dependent effect
# [9] = system: Receptor-type tyrosine-protein kinase FLT3 (Homo sapiens), P36888 [UNDEFINED MUTATION]; assay: Inhibition of FLT3-ITD mutant in human MOLM-13 cells assessed as decrease in p-S6 kinase level measured after 24 to 48 hrs by Western blot analysis; assay type: cell-based; conditions: dose 10-100 nM, time 24-48 hrs, DDE = dose-dependent effect
# [10] = system: Receptor-type tyrosine-protein kinase FLT3 (Homo sapiens), P36888 [UNDEFINED MUTATION]; assay: Inhibition of FLT3-ITD mutant in human MV4-11 cells assessed as decrease in p-S6 kinase level measured after 24 to 48 hrs by Western blot analysis; assay type: cell-based; conditions: dose 10-100 nM, time 24-48 hrs, DDE = dose-dependent effect
# [11] = system: Receptor-type tyrosine-protein kinase FLT3 (Homo sapiens), P36888 [UNDEFINED MUTATION]; assay: Inhibition of FLT3-ITD mutant in human MV4-11 cells assessed as decrease in Erk1/2 phosphorylation measured after 24 to 48 hrs by Western blot analysis; assay type: cell-based; conditions: dose 10-100 nM, time 24-48 hrs, DDE = dose-dependent effect
# MOLM-13 [12] = assay: Cell cycle arrest in human MOLM-13 cells assessed as accumulation at G0/G1 phase at 10 to 50 nM measured after 72 hrs by flow cytometry; assay type: functional, cell-based; conditions: dose 10-50 nM
# MV4-11 [13] = assay: Cell cycle arrest in human MV4-11 cells assessed as accumulation at G0/G1 phase at 10 to 50 nM measured after 72 hrs by flow cytometry; assay type: functional, cell-based; conditions: dose 10-50 nM
# MV4-11 [14] = assay: Induction of apoptosis in human MV4-11 cells assessed as increase number of apoptotic cells at 10 to 50 nM measured after 72 hrs by propidium iodide staining based flow cytometry; assay type: functional, cell-based; conditions: dose 10-50 nM
# MV4-11 [15] = assay: Induction of apoptosis in human MV4-11 cells assessed as increase number of necrotic cells at 10 to 50 nM measured after 72 hrs by propidium iodide staining based flow cytometry; assay type: functional, cell-based; conditions: dose 10-50 nM
# MOLM-13 [16] = assay: Induction of apoptosis in human MOLM-13 cells assessed as increase number of necrotic cells at 10 to 50 nM measured after 72 hrs by propidium iodide staining based flow cytometry; assay type: functional, cell-based; conditions: dose 10-50 nM
# BNL = assay: Cytotoxicity against mouse BNL cells assessed as cell viability at 10 to 50 nM measured after 72 hrs by ATP Cell titer-Glo assay; assay type: toxicity, cell-based; conditions: 0.05 µM, dose 10-50 nM
# H9c2 = assay: Cytotoxicity against rat H9c2 cells assessed as cell viability at 10 to 50 nM measured after 72 hrs by ATP Cell titer-Glo assay; assay type: toxicity, cell-based; conditions: h9c2, 72 h, 0.05 µM, dose 10-50 nM
# [17] = biological target: CDK2/Cyclin A2 (Homo sapiens) (UniProt P24941+P20248); assay: Inhibition of His-tagged recombinant full length human CDK2/CyclinA expressed in baculovirus expression system at 1 uM by LanthaScreen assay
# [18] = biological target: Fibroblast growth factor receptor 3 (Homo sapiens) (UniProt P22607); assay: Inhibition of FGFR3 (unknown origin) at 1 uM
# Sequence of Fibroblast growth factor receptor 3 (Homo sapiens) (P22607 23-806 limits assumed): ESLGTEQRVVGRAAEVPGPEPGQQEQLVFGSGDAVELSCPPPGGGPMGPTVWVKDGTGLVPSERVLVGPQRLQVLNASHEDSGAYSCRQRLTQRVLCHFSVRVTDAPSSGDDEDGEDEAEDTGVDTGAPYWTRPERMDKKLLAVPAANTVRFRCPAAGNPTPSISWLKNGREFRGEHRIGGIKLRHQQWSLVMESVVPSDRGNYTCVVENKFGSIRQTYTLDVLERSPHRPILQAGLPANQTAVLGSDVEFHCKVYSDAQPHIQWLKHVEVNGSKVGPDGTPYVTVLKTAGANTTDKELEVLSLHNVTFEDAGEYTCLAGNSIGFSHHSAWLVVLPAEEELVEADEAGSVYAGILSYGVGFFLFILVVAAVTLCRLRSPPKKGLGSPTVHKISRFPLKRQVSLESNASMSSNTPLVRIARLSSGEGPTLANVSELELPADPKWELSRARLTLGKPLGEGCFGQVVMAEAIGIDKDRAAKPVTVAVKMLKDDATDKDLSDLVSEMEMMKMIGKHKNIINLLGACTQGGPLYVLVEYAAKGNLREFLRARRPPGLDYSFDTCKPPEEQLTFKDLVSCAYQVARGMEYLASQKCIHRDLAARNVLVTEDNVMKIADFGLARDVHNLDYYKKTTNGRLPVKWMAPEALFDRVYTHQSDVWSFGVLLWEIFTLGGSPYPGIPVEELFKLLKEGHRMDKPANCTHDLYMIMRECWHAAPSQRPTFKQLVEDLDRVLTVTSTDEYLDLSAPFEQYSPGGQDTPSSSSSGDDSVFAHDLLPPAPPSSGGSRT
# [19] = biological target: Vascular endothelial growth factor receptor 1 (Homo sapiens) (UniProt P17948); assay: Inhibition of human recombinant FLT1 expressed in baculovirus expression system at 1 uM by LanthaScreen assay
# [20] = biological target: Vascular endothelial growth factor receptor 3 (Homo sapiens) (UniProt P35916); assay: Inhibition of human recombinant FLT4 expressed in baculovirus expression system at 1 uM by LanthaScreen assay
# [21] = biological target: Insulin-like growth factor 1 receptor (Homo sapiens) (UniProt P08069); assay: Inhibition of human recombinant IGF1R expressed in baculovirus expression system at 1 uM by LanthaScreen assay
# Sequence of Insulin-like growth factor 1 receptor (Homo sapiens) (P08069 31-736 limits assumed): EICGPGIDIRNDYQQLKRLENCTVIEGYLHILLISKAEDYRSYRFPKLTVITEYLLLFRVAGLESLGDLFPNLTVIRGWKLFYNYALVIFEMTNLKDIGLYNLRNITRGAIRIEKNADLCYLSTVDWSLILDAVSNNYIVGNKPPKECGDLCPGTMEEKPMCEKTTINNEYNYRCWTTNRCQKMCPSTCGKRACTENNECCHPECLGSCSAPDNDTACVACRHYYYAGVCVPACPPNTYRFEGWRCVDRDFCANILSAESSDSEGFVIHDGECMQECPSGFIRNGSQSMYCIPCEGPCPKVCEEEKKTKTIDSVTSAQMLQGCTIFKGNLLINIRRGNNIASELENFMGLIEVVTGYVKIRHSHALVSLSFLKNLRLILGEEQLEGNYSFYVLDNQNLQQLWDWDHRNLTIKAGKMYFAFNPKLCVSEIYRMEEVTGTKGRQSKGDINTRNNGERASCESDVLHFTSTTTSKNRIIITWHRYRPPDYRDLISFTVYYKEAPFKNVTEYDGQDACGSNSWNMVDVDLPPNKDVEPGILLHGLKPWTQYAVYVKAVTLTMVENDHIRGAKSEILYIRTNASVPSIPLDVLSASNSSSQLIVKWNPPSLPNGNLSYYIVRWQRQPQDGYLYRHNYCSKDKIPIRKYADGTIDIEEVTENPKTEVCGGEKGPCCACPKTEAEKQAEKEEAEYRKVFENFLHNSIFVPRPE
# Sequence of Insulin-like growth factor 1 receptor (Homo sapiens) (P08069 741-1367 limits assumed): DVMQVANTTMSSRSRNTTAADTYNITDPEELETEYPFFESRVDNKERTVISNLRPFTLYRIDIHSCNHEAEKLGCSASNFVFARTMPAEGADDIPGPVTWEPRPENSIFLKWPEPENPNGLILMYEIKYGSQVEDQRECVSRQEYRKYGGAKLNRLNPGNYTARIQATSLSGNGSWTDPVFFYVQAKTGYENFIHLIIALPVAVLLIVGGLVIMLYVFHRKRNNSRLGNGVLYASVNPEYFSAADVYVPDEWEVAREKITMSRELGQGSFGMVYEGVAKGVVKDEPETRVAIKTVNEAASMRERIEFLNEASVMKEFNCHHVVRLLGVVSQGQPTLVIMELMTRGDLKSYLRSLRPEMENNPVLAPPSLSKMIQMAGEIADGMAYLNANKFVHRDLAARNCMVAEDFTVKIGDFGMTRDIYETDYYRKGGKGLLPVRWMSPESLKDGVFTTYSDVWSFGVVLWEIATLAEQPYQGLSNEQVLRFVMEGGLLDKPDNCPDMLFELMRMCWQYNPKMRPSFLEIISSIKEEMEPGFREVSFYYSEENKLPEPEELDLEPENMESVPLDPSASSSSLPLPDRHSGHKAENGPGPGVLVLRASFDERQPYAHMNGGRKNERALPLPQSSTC
# [22] = biological target: Vascular endothelial growth factor receptor 2 (Homo sapiens) (UniProt P35968); assay: Inhibition of human recombinant KDR expressed in baculovirus expression system at 1 uM by LanthaScreen assay
# [23] = biological target: Mast/stem cell growth factor receptor Kit (Homo sapiens) (UniProt P10721); assay: Inhibition of c-Kit (unknown origin) at 1 uM
# [24] = biological target: Tyrosine-protein kinase Lck (Homo sapiens) (UniProt P06239); assay: Inhibition of human recombinant LCK expressed in baculovirus expression system at 1 uM by LanthaScreen assay
# Sequence of Tyrosine-protein kinase Lck (Homo sapiens) (P06239 2-509 limits assumed): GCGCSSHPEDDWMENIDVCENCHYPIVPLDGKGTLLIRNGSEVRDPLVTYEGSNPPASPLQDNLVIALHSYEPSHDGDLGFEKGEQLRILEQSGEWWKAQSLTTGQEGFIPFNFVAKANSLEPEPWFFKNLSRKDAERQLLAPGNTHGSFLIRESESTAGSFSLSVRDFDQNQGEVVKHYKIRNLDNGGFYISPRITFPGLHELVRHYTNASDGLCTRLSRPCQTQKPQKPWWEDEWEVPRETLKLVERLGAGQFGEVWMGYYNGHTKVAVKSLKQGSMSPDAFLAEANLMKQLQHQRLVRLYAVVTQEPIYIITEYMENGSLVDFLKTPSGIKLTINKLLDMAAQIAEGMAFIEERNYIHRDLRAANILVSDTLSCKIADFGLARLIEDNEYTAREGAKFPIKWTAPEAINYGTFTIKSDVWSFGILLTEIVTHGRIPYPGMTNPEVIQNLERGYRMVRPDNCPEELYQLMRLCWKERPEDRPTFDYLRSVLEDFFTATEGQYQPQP
# [25] = biological target: Platelet-derived growth factor receptor alpha (Homo sapiens) (UniProt P16234); assay: Inhibition of PDGFRA (unknown origin) at 1 uM
# [26] = biological target: Platelet-derived growth factor receptor beta (Homo sapiens) (UniProt P09619); assay: Inhibition of human recombinant PDGFRB expressed in baculovirus expression system at 1 uM by LanthaScreen assay
# Sequence of Platelet-derived growth factor receptor beta (Homo sapiens) (P09619 whole entry): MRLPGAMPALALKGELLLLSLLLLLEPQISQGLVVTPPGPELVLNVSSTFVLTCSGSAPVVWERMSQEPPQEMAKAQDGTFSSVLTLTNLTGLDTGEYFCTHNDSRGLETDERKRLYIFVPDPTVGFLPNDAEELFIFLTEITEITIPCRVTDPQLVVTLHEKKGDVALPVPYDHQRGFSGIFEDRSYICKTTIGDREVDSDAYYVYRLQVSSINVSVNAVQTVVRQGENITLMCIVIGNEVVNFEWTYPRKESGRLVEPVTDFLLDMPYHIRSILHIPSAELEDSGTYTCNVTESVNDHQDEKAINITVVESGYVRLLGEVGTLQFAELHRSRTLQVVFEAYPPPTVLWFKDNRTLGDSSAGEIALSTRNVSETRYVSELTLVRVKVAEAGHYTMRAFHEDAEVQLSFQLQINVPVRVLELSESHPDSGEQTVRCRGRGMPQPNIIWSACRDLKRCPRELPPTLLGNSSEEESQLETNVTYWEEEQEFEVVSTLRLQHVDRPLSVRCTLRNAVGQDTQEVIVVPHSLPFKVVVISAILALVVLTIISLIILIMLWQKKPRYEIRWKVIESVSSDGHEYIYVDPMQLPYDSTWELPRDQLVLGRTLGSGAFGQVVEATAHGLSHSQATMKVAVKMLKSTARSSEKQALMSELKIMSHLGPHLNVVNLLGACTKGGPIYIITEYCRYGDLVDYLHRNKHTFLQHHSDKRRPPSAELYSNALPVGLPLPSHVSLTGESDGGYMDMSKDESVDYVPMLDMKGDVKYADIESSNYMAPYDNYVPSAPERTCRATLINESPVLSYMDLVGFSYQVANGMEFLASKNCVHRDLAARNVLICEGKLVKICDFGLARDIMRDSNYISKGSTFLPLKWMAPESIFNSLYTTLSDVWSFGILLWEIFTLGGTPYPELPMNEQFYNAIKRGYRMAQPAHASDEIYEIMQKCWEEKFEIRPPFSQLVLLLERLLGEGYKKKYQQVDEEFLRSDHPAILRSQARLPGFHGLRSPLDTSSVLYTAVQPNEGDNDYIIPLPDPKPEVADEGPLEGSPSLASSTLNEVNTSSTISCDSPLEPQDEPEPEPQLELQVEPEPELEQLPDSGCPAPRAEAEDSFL
# [27] = biological target: Serine/threonine-protein kinase B-raf (Homo sapiens) (UniProt P15056); assay: Inhibition of B-raf (unknown origin) at 1 uM
# [28] = biological target: Serine/threonine-protein kinase D2 (Homo sapiens) (UniProt Q9BZL6); assay: Inhibition of human recombinant PRKD2 expressed in baculovirus expression system at 1 uM by LanthaScreen assay
# [29] = biological target: Serine/threonine-protein kinase pim-1 (Homo sapiens) (UniProt P11309); assay: Inhibition of human recombinant PIM1 expressed in baculovirus expression system at 1 uM by LanthaScreen assay
# Sequence of Serine/threonine-protein kinase pim-1 (Homo sapiens) (P11309 whole entry, looked up): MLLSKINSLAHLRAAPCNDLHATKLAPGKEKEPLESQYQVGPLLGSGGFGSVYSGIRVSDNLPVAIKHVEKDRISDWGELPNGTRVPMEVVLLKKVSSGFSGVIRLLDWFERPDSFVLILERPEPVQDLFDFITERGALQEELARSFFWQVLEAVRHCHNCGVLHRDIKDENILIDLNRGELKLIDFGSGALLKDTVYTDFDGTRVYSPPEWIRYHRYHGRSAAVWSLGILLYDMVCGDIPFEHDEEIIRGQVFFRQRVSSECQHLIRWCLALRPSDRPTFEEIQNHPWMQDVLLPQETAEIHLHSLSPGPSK
# [30] = biological target: Proto-oncogene tyrosine-protein kinase Src (Homo sapiens) (UniProt P12931); assay: Inhibition of human recombinant Src expressed in baculovirus expression system at 1 uM by LanthaScreen assay
# [31] = biological target: BDNF/NT-3 growth factors receptor (Homo sapiens) (UniProt Q16620); assay: Inhibition of human recombinant TrkB expressed in baculovirus expression system at 1 uM by LanthaScreen assay
# [32] = biological target: NT-3 growth factor receptor (Homo sapiens) (UniProt Q16288); assay: Inhibition of human recombinant TrkC expressed in baculovirus expression system at 1 uM by LanthaScreen assay
# [33] = biological target: T1, Receptor-type tyrosine-protein kinase FLT3
# Description: Inhibition of recombinant His-tagged human FLT3 (564 to 958 residues) expressed in baculovirus expression system by LanthaScreen assay
# [34] = biological target: T2, Receptor-type tyrosine-protein kinase FLT3
# [35] = biological target: T3, Receptor-type tyrosine-protein kinase FLT3; remark: listed apart in the source
# [36] = biological target: High affinity nerve growth factor receptor (Homo sapiens, UniProt P04629)
# Sequence of High affinity nerve growth factor receptor (P04629 whole entry): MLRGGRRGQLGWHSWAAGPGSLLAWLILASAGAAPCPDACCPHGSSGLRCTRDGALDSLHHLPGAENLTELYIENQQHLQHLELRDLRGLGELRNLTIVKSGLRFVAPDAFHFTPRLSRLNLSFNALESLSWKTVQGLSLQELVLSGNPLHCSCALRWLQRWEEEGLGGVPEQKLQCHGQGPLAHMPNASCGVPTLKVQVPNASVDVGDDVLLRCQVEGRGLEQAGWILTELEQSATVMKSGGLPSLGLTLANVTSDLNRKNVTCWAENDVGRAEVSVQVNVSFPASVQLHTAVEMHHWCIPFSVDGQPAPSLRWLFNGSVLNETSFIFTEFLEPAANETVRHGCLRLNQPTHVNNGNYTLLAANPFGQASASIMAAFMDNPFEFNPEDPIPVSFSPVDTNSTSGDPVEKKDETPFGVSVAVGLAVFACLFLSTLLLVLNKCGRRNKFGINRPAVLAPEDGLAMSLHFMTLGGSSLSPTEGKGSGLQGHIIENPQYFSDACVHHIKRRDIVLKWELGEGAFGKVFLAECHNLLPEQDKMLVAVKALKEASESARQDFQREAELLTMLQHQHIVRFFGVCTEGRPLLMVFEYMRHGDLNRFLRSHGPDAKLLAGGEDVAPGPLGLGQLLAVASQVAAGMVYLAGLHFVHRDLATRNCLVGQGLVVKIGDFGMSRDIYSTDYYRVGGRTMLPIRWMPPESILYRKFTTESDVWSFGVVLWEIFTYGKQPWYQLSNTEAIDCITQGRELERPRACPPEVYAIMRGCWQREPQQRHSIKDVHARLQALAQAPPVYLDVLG
# Description: Inhibition of recombinant His-tagged human TrKA expressed in baculovirus expression system by LanthaScreen assay
# MOLM-13 [37] = assay: cells; conditions: Homo sapiens, MOLM-13, 72 h
# MV4-11 [38] = assay: cells; conditions: Homo sapiens, MV4-11, 72 h
smiles,measurement,setting,value
CCc1nc(C(N)=O)c(Cc2ccc(N3CCC(N4CCN(C)CC4)CC3)c(OC)c2)nc1CN1CCOCC1,IC50,[1],0.00029 µM
same,IC50,[2],0.0018 µM
same,IC50,[3],0.0016 µM
CC(=O)Nc1ccc(-n2cnc3cc(-c4ccc(OCCN5CCCCC5)cc4)ccc32)cc1,inhibition,[4],63%
same,Activity,MOLM-13 [5],Active
same,inhibition,MV4-11 [6],Active
same,inhibition,MOLM-13 [7],Active
same,IC50,KM12,0.358 µM
same,inhibition,[8],Dde
same,inhibition,[9],Dde
same,inhibition,[10],Dde
same,inhibition,[11],Dde
same,Activity,MOLM-13 [12],Active
same,Activity,MV4-11 [13],Active
same,Activity,MV4-11 [14],Active
same,Activity,MV4-11 [15],Active
same,Activity,MOLM-13 [16],Active
same,Activity,BNL,Non-Toxic
same,Activity,H9c2,Non-Toxic
same,inhibition,[17],2%
same,inhibition,[18],13%
same,inhibition,[19],13%
same,inhibition,[20],24%
same,inhibition,[21],11%
same,inhibition,[22],77%
same,inhibition,[23],36%
same,inhibition,[24],78%
same,inhibition,[25],41%
same,inhibition,[26],33%
same,inhibition,[27],5%
same,inhibition,[28],19%
same,inhibition,[29],9%
same,inhibition,[30],27%
same,inhibition,[31],70%
same,inhibition,[32],79%
same,IC50,[33],0.0438 µM
same,IC50,[34],0.0972 µM
same,IC50,[35],0.0925 µM
same,IC50,[36],0.0236 µM
same,IC50,MOLM-13 [37],0.0388 µM
same,IC50,MV4-11 [38],0.0549 µM
